This note sets out measurements from patent US20260022143A1, “Cyclic Peptide Inhibitors of IL-23” (JANSSEN PHARMACEUTICA NV, priority 2022, published 2026).

One series has as its target T1, IL-23R (Homo sapiens, UniProt Q5VWK5).
T1 construct: host or cells: HEK293
T1 sequence (Q5VWK5 24-629): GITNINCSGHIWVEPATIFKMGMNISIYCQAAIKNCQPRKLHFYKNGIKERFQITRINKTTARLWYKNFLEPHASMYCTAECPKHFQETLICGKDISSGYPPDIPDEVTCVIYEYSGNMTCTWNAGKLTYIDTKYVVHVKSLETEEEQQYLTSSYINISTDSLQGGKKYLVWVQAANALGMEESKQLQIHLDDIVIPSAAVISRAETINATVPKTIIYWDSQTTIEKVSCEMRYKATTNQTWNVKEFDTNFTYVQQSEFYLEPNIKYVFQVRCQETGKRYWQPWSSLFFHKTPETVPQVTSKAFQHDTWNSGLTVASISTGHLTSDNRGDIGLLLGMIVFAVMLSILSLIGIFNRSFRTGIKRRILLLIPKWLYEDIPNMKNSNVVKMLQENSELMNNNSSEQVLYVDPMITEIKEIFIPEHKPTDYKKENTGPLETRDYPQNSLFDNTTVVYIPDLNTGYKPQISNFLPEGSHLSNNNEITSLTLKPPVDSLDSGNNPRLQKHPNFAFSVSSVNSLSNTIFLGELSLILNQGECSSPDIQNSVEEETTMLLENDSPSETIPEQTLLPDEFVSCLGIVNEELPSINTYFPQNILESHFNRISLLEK
In words: IL23R Reporter Assay. It counts as cell-based. To be noted: HEK293 cells containing IL-23R, IL-12RP1 and STAT-inducible firefly luciferase reporter; 10 ng/mL IL-23 (EC90); 5 h at 37° C.; read-out: IL23R Reporter Assay. On the technique in general: In a reporter assay the amount or activity of a reporter protein is the signal.

Series [1] is described as follows: Exposed Polar Surface Area (EPSA). It counts as physicochemical. As to conditions: SFC on Chirex 3014 column; sample 1 mM DMSO stock; read-out: EPSA. Summed up: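 Polarity descriptor in Å² derived from retention time using 8 calibration standards re-run every 20 compounds. Duplicate injections of 1 mM DMSO stock; linear 5–60% modifier gradient (20 mM ammonium formate in MeOH) with CO2 at 4 mL/min, 35 °C, on a Chirex 3014 column.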

Counter-ions that a name gives are not always drawn. Starred links: 1 amine or outer side, 2 acyl side, 3 side chain; linkers in the order of their positions; H or OH if unused. Positions of bridges follow the written chain, without caps; N, C: chain ends. Non-standard residues stand in square brackets, D forms with d. Residues, ends and D or L forms follow the SMILES beside them. *: point of attachment. Me3N+(CH2)2O(CH2)2O(CH2)2CO = C[N+](C)(C)CCOCCOCCC(=O)*; Trp(7-Me) = Cc1cccc2c(C[C@H](N)C(=O)O)c[nH]c12; Hexanoyl(6-NMe3+) = C[N+](C)(C)CCCCCC(=O)*; dLys(Me3) = C[N+](C)(C)CCCC[C@@H](N)C(=O)O; X63 = C[N+]1(C)CCC(N[*:1])(C(=O)[*:2])CC1; Dab(NMeAc) = CC(=O)N(C)CC[C@H](N)C(=O)O; 2Nal = N[C@@H](Cc1ccc2ccccc2c1)C(=O)O; AEF = NCCOc1ccc(C[C@H](N)C(=O)O)cc1; 3Pal = N[C@@H](Cc1cccnc1)C(=O)O; Lys(Me) = CNCCCC[C@H](N)C(=O)O; Pen = CC(C)(S)[C@H](N)C(=O)O; Thp = NC1(C(=O)O)CCOCC1; Dap = NC[C@H](N)C(=O)O; X3 = C[N+](C)(C)CCCCC*; Me2NCH2CH2 = CN(C)CC*; Tfa = O=C(C(F)(F)F)*; Sar = CNCC(=O)O

For the compound `CC(=O)N(C)CC[C@@H]1NC(=O)[C@H](Cc2c[nH]c3c(C)cccc23)NC(=O)[C@H]([C@@H](C)O)NC(=O)[C@H](CC(N)=O)NC(=O)[C@@H](NC(=O)C(F)(F)F)C(C)(C)SSC(C)(C)[C@@H](C(=O)N[C@@H](Cc2ccc(OCCN(C)C)cc2)C(=O)N[C@@H](Cc2ccc3ccccc3c2)C(=O)NC2(C(=O)N[C@@H](CCC(=O)N(C)C)C(=O)N[C@@H](CC(N)=O)C(=O)N[C@@H](Cc3cccnc3)C(=O)N(C)CC(N)=O)CCOCC2)NC1=O` [compound 71] (Tfa-[Pen]NT[Trp(7-Me)][Dab(NMeAc)][Pen]Y(Me2NCH2CH2)[2Nal][Thp]E(NMe2)N[3Pal][Sar]-NH2; disulfide 1-6 (inferred)), the IC50 on IL-23R turned out to be 2.1 nM. Besides, in series [1], the EPSA stood at 146 A^2.

Consider `CC(=O)NCCCC[C@@H]1NC(=O)[C@H](Cc2c[nH]c3c(C)cccc23)NC(=O)[C@H]([C@@H](C)O)NC(=O)[C@H](CC(N)=O)NC(=O)[C@@H](NC(=O)[C@@H](CCCC[N+](C)(C)C)NC(=O)C(F)(F)F)C(C)(C)SSC(C)(C)[C@@H](C(=O)N[C@@H](Cc2ccc(OCCN)cc2)C(=O)N[C@@H](Cc2ccc3ccccc3c2)C(=O)NC2(C(=O)N[C@@H](CCCCNC(C)=O)C(=O)N[C@@H](CC(N)=O)C(=O)N[C@@H](Cc3cccnc3)C(=O)N(C)CC(N)=O)CCOCC2)NC1=O` [compound 80] (Tfa-[dLys(Me3)][Pen]NT[Trp(7-Me)]K(Ac)[Pen][AEF][2Nal][Thp]K(Ac)N[3Pal][Sar]-NH2; disulfide 2-7 (inferred)), for which the IC50 at IL-23R worked out at 4.3 nM. Further, the EPSA in series [1] came to 157 A^2.

Regarding `CC(=O)NCCCC[C@@H]1NC(=O)[C@H](Cc2c[nH]c3c(C)cccc23)NC(=O)[C@H]([C@@H](C)O)NC(=O)[C@H](CC(N)=O)NC(=O)[C@@H](NC(=O)[C@@H](CCCCNC(=O)CCCCC[N+](C)(C)C)NC(C)=O)C(C)(C)SSC(C)(C)[C@@H](C(=O)N[C@@H](Cc2ccc(OCCN)cc2)C(=O)N[C@@H](Cc2ccc3ccccc3c2)C(=O)NC2(C(=O)N[C@@H](CCCCNC(C)=O)C(=O)N[C@@H](CC(N)=O)C(=O)N[C@@H](Cc3cccnc3)C(=O)N(C)CC(N)=O)CCOCC2)NC1=O` [compound 87] (Ac-[dK](Hexanoyl(6-NMe3+))[Pen]NT[Trp(7-Me)]K(Ac)[Pen][AEF][2Nal][Thp]K(Ac)N[3Pal][Sar]-NH2; disulfide 2-7 (inferred)), on IL-23R, the IC50 came to 4.2 nM. Further, the EPSA in series [1] was 159 A^2.

In the case of `CC(=O)NCCCC[C@@H]1NC(=O)[C@H](Cc2c[nH]c3c(C)cccc23)NC(=O)[C@H]([C@@H](C)O)NC(=O)[C@H](CC(N)=O)NC(=O)[C@@H](NC(=O)CCOCCOCC[N+](C)(C)C)C(C)(C)SSC(C)(C)[C@@H](C(=O)N[C@@H](Cc2ccc(OCCN)cc2)C(=O)N[C@@H](Cc2ccc3ccccc3c2)C(=O)NC2(C(=O)N[C@@H](CCCCNC(C)=O)C(=O)N[C@@H](CC(N)=O)C(=O)N[C@@H](Cc3cccnc3)C(=O)N(C)CC(N)=O)CCOCC2)NC1=O` [compound 90, cPEG3aCO-Pen(3)-N-T-7MeW-K(Ac)-Pen(3)-AEF-2Nal-THP-K(Ac)-N-3Pya-Sar-CONH2] ({Me3N+(CH2)2O(CH2)2O(CH2)2CO}-[Pen]NT[Trp(7-Me)]K(Ac)[Pen][AEF][2Nal][Thp]K(Ac)N[3Pal][Sar]-NH2; disulfide 1-6), the IC50 on IL-23R was 3.7 nM. The EPSA in series [1] stood at 164 A^2.

Take `Cc1cccc2c(C[C@@H]3NC(=O)[C@H]([C@@H](C)O)NC(=O)[C@H](CC(=O)N(C)C)NC(=O)[C@@H](NC(=O)[C@@H](CCCCNC(=O)CCCCC[N+](C)(C)C)NC(=O)C(F)(F)F)C(C)(C)SSC(C)(C)[C@@H](C(=O)N[C@@H](Cc4ccc(OCCN(C)C)cc4)C(=O)N[C@@H](Cc4ccc5ccccc5c4)C(=O)NC4(C(=O)N[C@@H](CCC(=O)N(C)C)C(=O)N[C@@H](CC(N)=O)C(=O)N[C@@H](Cc5cccnc5)C(=O)N(C)CC(=O)N(C)C)CCOCC4)NC(=O)[C@H](CCC(=O)N(C)C)NC3=O)c[nH]c12` [compound 96, CF3CO-k(5cpa)-Pen(3)-N(N(Me)2)-T-7MeW-Q(N(Me)2)-Pen(3)-AEF(N(Me)2)-2Nal-THP-Q(N(Me)2)-N-3Pya-Sar-CON(Me)2] (Tfa-[dK](Hexanoyl(6-NMe3+))[Pen]D(NMe2)T[Trp(7-Me)]E(NMe2)[Pen]Y(Me2NCH2CH2)[2Nal][Thp]E(NMe2)N[3Pal][Sar]-NMe2; disulfide 2-7): the IC50 on IL-23R was 4.6 nM. Further, the EPSA in series [1] is 139 A^2.

As for `Cc1cccc2c(C[C@@H]3NC(=O)[C@H]([C@@H](C)O)NC(=O)[C@H](CC(=O)N(C)C)NC(=O)[C@@H](NC(=O)CCCCC[N+](C)(C)C)C(C)(C)SSC(C)(C)[C@@H](C(=O)N[C@@H](Cc4ccc(OCCN(C)C)cc4)C(=O)N[C@@H](Cc4ccc5ccccc5c4)C(=O)NC4(C(=O)N[C@@H](CCC(=O)O)C(=O)N[C@@H](CC(N)=O)C(=O)N[C@@H](Cc5cccnc5)C(=O)N(C)CC(=O)N(C)C)CCOCC4)NC(=O)[C@H](CCC(=O)N(C)C)NC3=O)c[nH]c12` [compound 97, 5cpaCO-Pen(3)-N(N(Me)2)-T-7MeW-Q(N(Me)2)-Pen(3)-AEF(N(Me)2)-2Nal-THP-E-N-3Pya-Sar-CON(Me)2] ({Hexanoyl(6-NMe3+)}-[Pen]D(NMe2)T[Trp(7-Me)]E(NMe2)[Pen]Y(Me2NCH2CH2)[2Nal][Thp]EN[3Pal][Sar]-NMe2; disulfide 1-6), the IC50 on IL-23R worked out at 5.8 nM. Also, in series [1], the EPSA came to 152 A^2.

Turning to `CC(=O)NC[C@H](NC(=O)C1(NC(=O)[C@H](Cc2ccc3ccccc3c2)NC(=O)[C@H](Cc2ccc(OCCN(C)C)cc2)NC(=O)[C@H]2NC(=O)[C@H](CCCCN(C)C(C)=O)NC(=O)[C@H](Cc3c[nH]c4c(C)cccc34)NC(=O)[C@H]([C@@H](C)O)NC(=O)[C@H](CC(=O)N(C)C)NC(=O)[C@@H](NC(C)=O)C(C)(C)SSC2(C)C)CCOCC1)C(=O)N[C@@H](CC(N)=O)C(=O)N[C@@H](Cc1cccnc1)C(=O)N(C)CC(=O)N(C)C` [compound 98, MeCO-Pen(3)-N(N(Me)2)-T-7MeW-K(NMeAc)-Pen(3)-AEF(N(Me)2)-2Nal-THP-Dap(Ac)-N-3Pya-Sar-CON(Me)2] (Ac-[Pen]D(NMe2)T[Trp(7-Me)][Lys(Me)](Ac)[Pen]Y(Me2NCH2CH2)[2Nal][Thp][Dap](Ac)N[3Pal][Sar]-NMe2; disulfide 1-6), the IC50 on IL-23R was found to be 4.6 nM. The EPSA in series [1] stood at 139 A^2.

Take `Cc1cccc2c(C[C@@H]3NC(=O)[C@H]([C@@H](C)O)NC(=O)[C@H](CC(=O)N(C)C)NC(=O)[C@@H](NC(=O)CCCCC[N+](C)(C)C)C(C)(C)SSC(C)(C)[C@@H](C(=O)N[C@@H](Cc4ccc(OCCN(C)C)cc4)C(=O)N[C@@H](Cc4ccc5ccccc5c4)C(=O)NC4(C(=O)N[C@@H](CCC(=O)N(C)C)C(=O)N[C@@H](CC(N)=O)C(=O)N[C@@H](Cc5cccnc5)C(=O)N(C)CC(=O)N(C)C)CC[N+](C)(C)CC4)NC(=O)[C@H](CCC(=O)N(C)C)NC3=O)c[nH]c12` [compound 100, 5cpaCO-Pen(3)-N(N(Me)2)-T-7MeW-Q(N(Me)2)-Pen(3)-AEF(N(Me)2)-2Nal-Pip(NMe2)-Q(N(Me)2)-N-3Pya-Sar-CON(Me)2] ({Hexanoyl(6-NMe3+)}-[Pen]D(NMe2)T[Trp(7-Me)]E(NMe2)[Pen]Y(Me2NCH2CH2)[2Nal][X63]E(NMe2)N[3Pal][Sar]-NMe2; disulfide 1-6): the IC50 on IL-23R is 9.3 nM. Besides, the EPSA in series [1] came to 139 A^2.

As for `Cc1cccc2c(C[C@@H]3NC(=O)[C@H]([C@@H](C)O)NC(=O)[C@H](CC(=O)N(C)C)NC(=O)[C@@H](NC(=O)CCCCC[N+](C)(C)C)C(C)(C)SSC(C)(C)[C@@H](C(=O)N[C@@H](Cc4ccc(OCCCCC[N+](C)(C)C)cc4)C(=O)N[C@@H](Cc4ccc5ccccc5c4)C(=O)NC4(C(=O)N[C@@H](CCC(=O)N(C)C)C(=O)N[C@@H](CC(N)=O)C(=O)N[C@@H](Cc5cccnc5)C(=O)N(C)CC(=O)N(C)C)CCOCC4)NC(=O)[C@H](CCC(=O)N(C)C)NC3=O)c[nH]c12` [compound 101, 5cpaCO-Pen(3)-N(N(Me)2)-T-7MeW-Q(N(Me)2)-Pen(3)-TMAPF-2Nal-THP-Q(N(Me)2)-N-3Pya-Sar-CON(Me)2] ({Hexanoyl(6-NMe3+)}-[Pen]D(NMe2)T[Trp(7-Me)]E(NMe2)[Pen]Y(X3)[2Nal][Thp]E(NMe2)N[3Pal][Sar]-NMe2; disulfide 1-6), the IC50 on IL-23R was 5.2 nM. Also, the EPSA in series [1] amounted to 145 A^2.

Regarding `CC(=O)NCCCC[C@@H]1NC(=O)[C@H](Cc2c[nH]c3c(C)cccc23)NC(=O)[C@H]([C@@H](C)O)NC(=O)[C@H](CC(N)=O)NC(=O)[C@@H](NC(=O)CCCCC[N+](C)(C)C)C(C)(C)SSC(C)(C)[C@@H](C(=O)N[C@@H](Cc2ccc(OCCN(C)C)cc2)C(=O)N[C@@H](Cc2ccc3ccccc3c2)C(=O)NC2(C(=O)N[C@@H](CNC(C)=O)C(=O)N[C@@H](CC(N)=O)C(=O)N[C@@H](Cc3cccnc3)C(=O)N(C)CC(N)=O)CCOCC2)NC1=O` [compound 103] ({Hexanoyl(6-NMe3+)}-[Pen]NT[Trp(7-Me)]K(Ac)[Pen]Y(Me2NCH2CH2)[2Nal][Thp][Dap](Ac)N[3Pal][Sar]-NH2; disulfide 1-6 (inferred)), the IC50 at IL-23R is 5.4 nM. Besides, the EPSA in series [1] was found to be 158 A^2.
